# Reference: US20240229156A1, “METHODS FOR USING A HYPOMETHYLATING AGENT TO TREAT DISEASES AND DISORDERS BASED ON GENE MUTATION PROFILES” (Celgene Corporation, priority 2021, published 2024)
# “And” between values parts separate entries of the source, which are not always exact repeats. Equal values may be shown once.
# Experiments:
# [1] = test system: patients with AML who were in first remission after intensive chemotherapy; experiment: Phase 3 QUAZAR (CC0486-AML-001) trial of CC-486 maintenance: gene mutation, cytogenetic and MRD status correlated with OS and RFS; type: in vivo, human
# Experimental: The correlative analyses of gene mutations with clinical indices (overal survival (OS), relapse-free survival (RFS)) were performed in the CC0486-AML-001 study (the QUAZAR® study). […] In this clinical trial, the key enrollment criteria included newly diagnosed de novo or secondary AML patients, with either intermediate or poor risk (based on the 2012 National Comprehensive Cancer Network (NCCN) classification), were 55 years of age or older, who were in complete remission with or without complete blood count recovery. Patients were also those that were not candidates for hematopoietic stem-cell transplantation. See, ClinicalTrials.gov Identifier: NCT01757535, https://clinicaltrials.gov/ct2/show/NCT01757535, the entirety of which is incorporated herein by reference.
# The primary end point was overall survival (OS). Secondary end points included relapse-free survival (RFS).
# Bone marrow mononuclear cell (BMMC) DNA was isolated from patients at diagnoses (before consideration for study enrollment) and specific gene mutations (NPM1, FLT3 ITD, FLT3 TKD, CEBPA, MLL, P53, cKIT, NRAS) were determined by investigator report or retrospectively identified by central sequencing for available samples. Cytogenetic risk classification was performed according to the 2012 NCCN Guidelines (source: National Comprehensive Cancer Network Clinical Practice Guidelines in Oncology for Acute Myeloid Leukemia; available at https://www.nccn.org/professionals/physician_gls/PDF/aml.pdf); only intermediate- and poor-risk patients were eligible.
# At screening (post-IC/C induction chemotherapy/consolidation, when patients achieved complete remission (CR) or CR with incomplete blood count recovery (CRi), gene mutations were identified by targeted next-generation sequencing (ArcherDX VariantPlex Core Myeloid panel; 37 genes, ArcherDX, Boulder, CO) of DNA isolated from BMMCs. Gene mutational analyses and variants reported were based on the sequence coverages of the 37-gene AML panel. Mutation variants were filtered. Karyotypes from post-IC/C bone marrow samples were determined by MLL (Munich Leukemia Laboratory, Munich, Germany). […] defined as three or more cytogenetic abnormalities in the absence of a WHO designated recurring translocation or inversion; i.e., t(8;21)(q22;q22.1); t(9;11)(p21.3;q23.3); inv(3)(q21.3q26.2) or t(3;3)(q21.3;q26.2); t(6;9)(p23;q34.1); t(v;11;q23.3).
# When applicable, statistical analyses were performed using Prism Software (v.8.0.0; GraphPad Software, San Diego, CA) or R statistical computing software environment (v3.6.3). OS and RFS were estimated using Kaplan-Meier methods and P values were calculated using the log-rank test. Cox regression analyses were performed to evaluate the association of gene mutation status and treatment arm with OS and RFS. Gene mutation frequencies and landscape were visualized. Correlative analyses including single gene mutation and co-mutational queries were performed with clinical response. All possible pairings between genes and/or cytogenetic alterations were evaluated for tendency to co-occur or for mutual exclusivity; i.e., a pair of alterations occurring together more frequently or rarely than expected by their individual frequencies, as described by Papaemmanuil et al. (N Engl J Med, 2016). 2×2 contingency tables were generated to test putative associations using Fisher's exact tests and adjusted to control for multiple hypothesis testing. Significant differences between groups were assessed using statistical methods listed in the corresponding Figure footnotes. P-values were considered statistically significant at *p≤0.05, **p≤0.01, or ***p≤0.001.
# DNA methylation = details: clinical studies; cited from earlier work
smiles,measurement,setting,value
"Nc1ncn([C@@H]2O[C@H](CO)C(O)C2O)c(=O)n1 (stereo partly drawn) [CC-486, 4-amino-l-B-D-ribofuranosyl-1,3,5-triazin-2(1H)-one]",median OS,"[1]; DNMT3A mutation postIC/C, FIG. 18A, placebo 13.0, p=0.0003",24.8 months
same,median RFS,"[1]; DNMT3A mutation postIC/C, FIG. 18B, placebo 4.7, p<0.0001",18.4 months
same,median OS,"[1]; FIG. 6B (RFS figure), NPM1 mutation at diagnosis, placebo 6.9, p=0.0098",23.2 months
same,median OS,"[1]; FIG. 9B (RFS figure), FLTITD/FLT3-TKD mutation, placebo 4.6, p=0.0475",23.1 months
same,median OS,"[1]; FIG. 10B (RFS figure), NPM1 mutation and FLTITD WT, placebo 7.8, p=0.0572",21.1 months
same,median OS,"[1]; FIG. 10F (RFS figure), NPM1 WT and FLTITD mutation, placebo 4.0, p=0.9446",4.5 months
same,median OS,"[1]; FLTITD/FLT3-TKD mutation NPM1 WT, FIG. 13B, placebo 8.7, p=0.4105",11.8 months
same,"prolonged RFS, CC-486 vs placebo","[1]; FLTITD/FLT3-TKD mutation NPM1 WT, FIG. 13D",no statistical significance
same,median OS,"[1]; FLTITD/FLT3-TKD mutation at diagnosis, placebo 9.7, p=0.0797",28.2 months
same,median RFS,"[1]; FLTITD/FLT3-TKD wild type, placebo 4.9, p=0.0009",10.2 months
same,median OS,"[1]; FLTITD/FLT3-TKD wild type, placebo 15.2, p=0.0123",24.7 months
same,median OS,"[1]; NPM1 WT and FLTITD mutation, FIG. 10E, placebo 9.7, p=0.9207",9.2 months
same,median OS,"[1]; NPM1 mutation FLTITD WT, FIG. 10A, placebo 18.0, p=0.0802",47.1 months
same,median OS,"[1]; NPM1 mutation FLTITD/FLT3-TKD WT, FIG. 13A, placebo 20.2, p=0.0763",47.1 months
same,median RFS,"[1]; NPM1 mutation FLTITD/FLT3-TKD WT, FIG. 13C, placebo 7.7, p=0.0827",18.4 months
same,median OS,"[1]; NPM1 mutation FLTITD/FLT3-TKD mutation, FIG. 13A and 13B, placebo 13.4, p=0.0827",46.1 months
same,median RFS,"[1]; NPM1 mutation FLTITD/FLT3-TKD mutation, FIG. 13C and 13D, placebo 4.9, p=0.0278",46.1 months
same,median OS,"[1]; NPM1 mutation and FLTITD mutation, FIG. 10C, placebo 11.5, p=0.0488",49.3 months
same,median RFS,"[1]; NPM1 mutation and FLTITD mutation, FIG. 10D, placebo 4.6, p=0.0368",10.2 months
same,median OS,"[1]; NPM1 mutation and MRD negative status, FIG. 6C",47.2 months
same,median OS,"[1]; NPM1 mutation and MRD positive status, FIG. 6C",32.7 months
same,median RFS,"[1]; NPM1 mutation at diagnosis, FIG. 5C, vs NPM1 wild type p<0.0001",23.23 months
same,median OS,"[1]; NPM1 mutation at diagnosis, placebo 15.9, p=0.0138, vs NPM1 wild type p=0.0006",46.09 months and 46.1 months
same,median OS,"[1]; NPM1 wild type and MRD negative, FIG. 6C",24.6 months
same,median OS,"[1]; NPM1 wild type and MRD positive status, FIG. 6C",13.8 months
same,median RFS,"[1]; NPM1 wild type at diagnosis, placebo 4.6, p=0.0029",7.688 months and 7.7 months
same,median OS,"[1]; NPM1 wild type at diagnosis, placebo 14.6, p=0.0365",19.58 months and 19.6 months
same,"OS, CC-486 versus placebo",[1]; WT DNMT3A postIC/C,No differences
same,"RFS, CC-486 versus placebo",[1]; WT DNMT3A postIC/C,No differences
same,"OS, CC-486 versus placebo",[1]; WT p53 postIC/C,increases
same,"RFS, CC-486 versus placebo",[1]; WT p53 postIC/C,increases
same,"OS, CC-486 versus placebo","[1]; abnormal karyotype (>1 abnormality) postIC/C, FIG. 17C",no statistically significant differences
same,"RFS, CC-486 versus placebo","[1]; abnormal karyotype (>1 abnormality) postIC/C, FIG. 17D",no statistically significant differences
same,median RFS,"[1]; complex karyotype (≥4 abnormalities) postIC/C, vs normal karyotype p<0.0001",1.906 months
same,median OS,"[1]; complex karyotype (≥4 abnormalities) postIC/C, vs normal karyotype p=0.0003",6.932 months
same,median OS,"[1]; de novo AML, FIG. 1A, placebo 14.55, p=0.0068",23.23 months
same,median RFS,"[1]; de novo AML, FIG. 1B, placebo 4.90, p=0.0002",10.15 months
same,median RFS,"[1]; intermediate cytogenetic risk at diagnosis, placebo 5.8, p=0.0004",11 months
same,median OS,"[1]; intermediate cytogenetic risk at diagnosis, placebo 16, p=0.0093",25 months
same,"RFS, CC-486 versus placebo","[1]; mutations in SRSF2 alone postIC/C, FIG. 21A, p=0.0809",trend for improved RFS
same,median OS,"[1]; normal karyotype (no abnormalities) postIC/C, placebo 14.95, p=0.004, vs complex karyotype p=0.0003",25.10 months and 25.1 months
same,median RFS,"[1]; normal karyotype postIC/C, placebo 4.895, p<0.0001, vs complex karyotype p<0.0001",10.97 months
same,median OS,"[1]; other patients (lack NPM1 mutation in combination with FLTITD WT), FIG. 10A, placebo 14.6, p=0.0119",20.2 months
same,median RFS,"[1]; other patients, FIG. 10B, placebo 4.6, p=0.0006",7.9 months
same,median OS,"[1]; other patients, FIG. 10C, placebo 14.9, p=0.0080",24.7 months
same,median RFS,"[1]; other patients, FIG. 10D, placebo 4.1, p=0.0008",10.2 months
same,median OS,"[1]; other patients, FIG. 10E, placebo 14.9, p=0.0020",25.0 months
same,median RFS,"[1]; other patients, FIG. 10F, placebo 4.9, p<0.0001",10.2 months
same,"OS, CC-486 versus placebo","[1]; p53 mutation postIC/C, FIG. 18C",no statistically significant differences
same,median RFS,"[1]; p53 mutation postIC/C, FIG. 18D, placebo 3.5, p=0.0579",7.4 months
same,"differences in median OS or median RFS, normal versus abnormal karyotype","[1]; patients treated with CC-486, abnormal karyotype (1-3 abnormalities), FIG. 16",statistically significant differences
same,median RFS,"[1]; poor cytogenetic risk at diagnosis, placebo 3.7, p=0.0776",4.6 months
same,median OS,"[1]; poor cytogenetic risk at diagnosis, placebo 7.4, p=0.0602",14 months
same,median OS,"[1]; secondary AML, FIG. 1A, placebo 15.67, p=0.1072",28.19 months
same,median RFS,"[1]; secondary AML, FIG. 1B, placebo 2.45, p=0.0118",4.67 months
same,demethylative effects as compared to VIDAZA,DNA methylation,more sustainable demethylative effects
